Test results from patent publication US20240254138A1, “TRICYCLIC PYRIMIDINES AS CYCLIN-DEPENDENT KINASE 7 (CDK7) INHIBITORS” (JANSSEN PHARMACEUTICA NV, priority 2021, published 2024).
Like-named read-outs stand apart in the source and are kept apart here.

Legend:
[1] = system: RNA Polymerase II Serine 5 phosphorylation (Rpb1 CTD, downstream substrate of CDK7) in A549 cells; assay: Imaging-based cellular RNA PolII Ser5 phosphorylation assay in A549 cells; type: cell-based, human; details: wild-type CDK7, RNA PolII Ser5 phosphorylation, averaged over all measurements; for IC50: Homo sapiens, A549, A549 cells, read-out: CDK7_A549 Wild-type CDK7 (pIC50) (converted); for CDK7_A549 Wild-type CDK7 (pIC50): A549 cells
Summary of the method: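 A549 cells, seeded 1000/well in DMEM with 1% FBS and cultured 20 h, were treated with compound for 3 h at 37 °C. Ser5-phospho-Rpb1 CTD detected by immunofluorescence imaging after fixation and methanol permeabilization; IC50 from curve fit normalized to DMSO and 10 μM reference-compound controls.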

[2] = system: RNA Polymerase II Serine 5 phosphorylation in A549 cells overexpressing CDK7-mutant (C312S); assay: Imaging-based cellular RNA PolII Ser5 phosphorylation assay in A549 cells overexpressing CDK7-mutant (C312S); type: cell-based, human; details: RNA PolII Ser5 phosphorylation, averaged over all measurements; for IC50: Homo sapiens, A549, A549 cells overexpressing CDK7-mutant (C312S), read-out: CDK7_A549 mutant hCDK7(pIC50) (converted); for CDK7_A549 mutant hCDK7(pIC50): A549 cells overexpressing CDK7-mutant (C312S)
Summary of the method: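 A549 cells overexpressing CDK7 C312S (with endogenous wild-type CDK7) were treated with compound for 3 h at 37 °C in 1% FBS medium. Phospho-Rpb1 CTD Ser5 was immunostained after fixation and imaged. IC50 came from curve fit of % control, normalised to DMSO and 10 μM reference-compound controls.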

[3] = biological target: CDK7/cyclinH/MAT1 trimeric complex (Homo sapiens, UniProt P50613); assay: In vitro CDK7 assay, potency of irreversible covalent inhibitors (kinact/KI), coupled PK/LDH ADP readout at 340 nm; details: for CDK7 (kinact/KI, M^−1*s^−1): potency of irreversible covalent inhibitors
[4] = read-out: CDK7 (20 nM enz.) (kinact/KI, M^−1*s^−1), 20 nM enzyme
[5] = read-out: CDK7 (20 nM enz.) (kobs/[I], M^−1*s^−1), 20 nM enzyme
[6] = CDK7 (20 nM enz.) (KI, μM), 20 nM enzyme
[7] = read-out: CDK7 (20 nM enz.) (kinact, s^−1), 20 nM enzyme
[8] = CDK7 (KI(μM)), […], 1 mM ATP, room temperature, averaged values over all measurements
[9] = read-out: CDK7 (kinact, s^−1), kinact = maximal rate of inactivation, 1 mM ATP, room temperature, averaged values over all measurements
[10] = read-out: CDK7 (kinact/KI, M^−1*s^−1), potency of irreversible covalent inhibitors, 1 mM ATP, room temperature, averaged values over all measurements
[11] = 1 mM ATP, room temperature, averaged values over all measurements

CDK7/cyclinH/MAT1 trimeric complex, sequence (P50613 whole entry): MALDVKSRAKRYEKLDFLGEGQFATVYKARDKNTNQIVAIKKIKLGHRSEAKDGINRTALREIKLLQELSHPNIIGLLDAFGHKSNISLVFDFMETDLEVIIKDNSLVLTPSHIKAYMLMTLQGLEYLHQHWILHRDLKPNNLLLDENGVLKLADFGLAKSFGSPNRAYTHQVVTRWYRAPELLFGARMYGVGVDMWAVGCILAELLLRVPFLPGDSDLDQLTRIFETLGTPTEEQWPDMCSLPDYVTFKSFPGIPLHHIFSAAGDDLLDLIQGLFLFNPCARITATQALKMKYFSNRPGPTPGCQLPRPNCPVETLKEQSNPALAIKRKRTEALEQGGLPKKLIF
CDK7/cyclinH/MAT1 trimeric complex, sequence (P51946 whole entry partner): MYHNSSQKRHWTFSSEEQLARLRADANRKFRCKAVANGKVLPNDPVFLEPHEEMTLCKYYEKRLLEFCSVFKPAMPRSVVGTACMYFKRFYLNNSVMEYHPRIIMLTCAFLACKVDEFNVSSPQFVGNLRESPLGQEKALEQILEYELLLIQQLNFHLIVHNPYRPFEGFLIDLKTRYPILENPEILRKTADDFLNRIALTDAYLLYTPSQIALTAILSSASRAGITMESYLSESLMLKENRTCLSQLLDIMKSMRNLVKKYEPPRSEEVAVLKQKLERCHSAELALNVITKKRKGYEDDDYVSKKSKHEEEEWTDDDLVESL
CDK7/cyclinH/MAT1 trimeric complex, sequence (P51948 whole entry partner): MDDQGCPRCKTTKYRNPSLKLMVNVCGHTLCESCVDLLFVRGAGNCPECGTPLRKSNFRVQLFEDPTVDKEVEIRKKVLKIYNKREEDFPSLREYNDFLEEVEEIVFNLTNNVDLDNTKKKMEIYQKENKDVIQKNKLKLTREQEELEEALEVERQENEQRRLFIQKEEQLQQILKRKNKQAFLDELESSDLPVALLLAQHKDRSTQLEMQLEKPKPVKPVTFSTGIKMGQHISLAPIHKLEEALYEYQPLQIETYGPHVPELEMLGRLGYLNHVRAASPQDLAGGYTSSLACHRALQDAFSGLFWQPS

Row | SMILES | IC50 [1] [nM] | IC50 [2] [nM] | kinact/KI [3, 4] [M⁻¹ s⁻¹] | Ki [3, 6] [µM] | kinact [3, 7] [s⁻¹] | kinact/KI [3, 10] [M⁻¹ s⁻¹] | also measured
1 | CC#CC(=O)N1CCC(N2CC(c3cc4c(c(C(F)(F)F)n3)O[C@H](C)c3c(N5CCOCC5)ccnc3N4)C2)CC1 (single isomer, unassigned) [Compound 505] | 38 | 2400 | 246 |  |  |  | 
2 | C=CC(=O)Nc1ccc(C(=O)Nc2ccc3c(c2)Nc2ncc(C)c(C4CCOCC4)c2CO3)cc1 [Compound 2] | 794 | > 10000 |  |  |  | 609 | Ki [3, 8]: 0.129 µM; kinact [3, 9]: 7.86e-05 s⁻¹
3 | C=CC(=O)N1CC(N2CCC(c3ccc4c(c3)Nc3nccc(C5CCOCC5)c3CO4)CC2)C1 [Compound 3] |  | > 10000 |  |  |  |  | CDK7_A549 Wild-type CDK7 (pIC50) [1]: 6.89; CDK7 (kinact/KI, M^−1*s^−1) [3, 11]: 2787.5 M⁻¹ s⁻¹
4 | C=CC(=O)N1CC(N2CCC(c3ccc4c(c3)Nc3nccc(N5CCOCC5)c3CO4)CC2)C1 [Compound 4] |  |  |  |  |  |  | CDK7_A549 Wild-type CDK7 (pIC50) [1]: 6.84; CDK7_A549 mutant hCDK7(pIC50) [2]: <5; Ki [3, 8]: 0.0617 µM; CDK7 (kinact/KI, M^−1*s^−1) [3, 11]: 3147.06 M⁻¹ s⁻¹; kinact [3, 9]: 0.000303 s⁻¹
5 | C#CCOc1cc(C(=O)Nc2ccc3c(c2)Nc2nccc(C4CCOCC4)c2CO3)ccc1NC(=O)C=C [Compound 8] | 120 | > 10000 | 1810 | 0.0321 | 5.8e-05 | 1530 | 
6 | C=CC(=O)N1CC(N2CCC(c3ccc4c(c3)Nc3nccc(N5CCS(=O)(=O)CC5)c3CO4)CC2)C1 [Compound 9] | 447 | > 10000 |  |  |  | 486 | 
7 | C=CC(=O)N1CC(N2CCC(c3ccc4c(c3)Nc3nccc(C5=CCOCC5)c3CO4)CC2)C1 [Compound 10] | 204 | > 10000 |  |  |  | 1570 | Ki [3, 8]: 0.0555 µM; kinact [3, 9]: 0.000107 s⁻¹
8 | C=CC(=O)N1CC(N2CCC(c3ccc4c(c3)Nc3nccc(N5C[C@H]6CC[C@@H](C5)O6)c3CO4)CC2)C1 [Compound 11] | 87.1 | > 10000 |  |  |  | 688 | 
9 | C=CC(=O)N1CC(N2CCC(c3ccc4c(c3)Nc3nccc(N5CC=C(CCO)CC5)c3CO4)CC2)C1 [Compound 12] | 537 | > 10000 |  |  |  | 296 | 
10 | C=CC(=O)N1CC(N2CCC(c3ccc4c(c3)Nc3ncc(Cl)c(N5CCOCC5)c3CO4)CC2)C1 [Compound 13] | 135 | > 10000 |  |  |  | 1040 | 
11 | C=CC(=O)Nc1ccc(CNc2ccc3c(c2)Nc2nccc(N4CCOCC4)c2CO3)cn1 [Compound 16] | 45.7 | 3800 | 1160 | 0.0286 | 3.3e-05 | 402 | 

Now from value to compound, other results behind:

Row | IC50 [1] [nM] | IC50 [2] [nM] | kinact/KI [3, 4] [M⁻¹ s⁻¹] | Ki [3, 6] [µM] | kinact [3, 7] [s⁻¹] | kinact/KI [3, 10] [M⁻¹ s⁻¹] | SMILES | also measured
12 | 102 | 8320 |  |  |  |  | C=CC(=O)N1CC[C@@H](N2CC(c3cc4c(c(C#N)n3)O[C@H](C)c3c(N5CCOCC5)ccnc3N4)C2)C1 (single isomer, unassigned) [Compound 506] | kinact/KI [3, 5]: 348 M⁻¹ s⁻¹
13 | 110 | 8130 |  |  |  |  | C=CC(=O)N1CC[C@H](N2CC(c3cc4c(c(C#N)n3)O[C@H](C)c3c(N5CCOCC5)ccnc3N4)C2)C1 (single isomer, unassigned) [Compound 507] | kinact/KI [3, 5]: 389 M⁻¹ s⁻¹
14 | 2880 | > 10000 | 6.21 |  |  |  | C=CC(=O)N1CC[C@H](N2CC(c3cc4c(c(C#N)n3)O[C@@H](C)c3c(N5CCOCC5)ccnc3N4)C2)C1 (single isomer, unassigned) [Compound 508] | 
15 | 2400 | > 10000 | 14.5 | 1.28 | 1.85e-05 |  | C=CC(=O)N1CC[C@@H](N2CC(c3cc4c(c(C#N)n3)O[C@@H](C)c3c(N5CCOCC5)ccnc3N4)C2)C1 (single isomer, unassigned) [Compound 509] | 
16 |  |  |  | 0.052 |  |  | CC#CC(=O)N1CC(N2CCC(c3cc4c(c(C)n3)O[C@H](C)c3c(N5CCOCC5)ccnc3N4)CC2)C1 (single isomer, unassigned) [Compound 510] | CDK7_A549 Wild-type CDK7 (pIC50) [1]: 6.72; CDK7_A549 mutant hCDK7(pIC50) [2]: <5; CDK7 (20 nM enz.) (kinact, s^−1) ([3]; 20 nM enzyme): 3.092e-05 s⁻¹; CDK7 (20 nM enz.) (kinact/KI, M^−1*s^−1) ([3]; 20 nM enzyme): 594.812 M⁻¹ s⁻¹
17 | 3020 | > 10000 | 14.3 | 2.91 | 4.23e-05 |  | CC#CC(=O)N1CCC(N2CC(c3cc4c(c(C#N)n3)O[C@H](C)c3c(C5CCOCC5)ccnc3N4)C2)CC1 (single isomer, unassigned) [Compound 517] | 
18 | 64.6 | 4070 | 4340 | 0.0075 | 3.26e-05 |  | CC#CC(=O)N1CCC(N2CC(c3cc4c(c(C#N)n3)O[C@@H](C)c3c(C5CCOCC5)ccnc3N4)C2)CC1 (single isomer, unassigned) [Compound 518] | 
19 | 158 | > 10000 |  | 0.00977 | 2.91e-05 |  | CC#CC(=O)N1CC(N2CCC(c3cc4c(c(C#N)n3)O[C@@H](C)c3c(N5CCOCC5)ccnc3N4)CC2)C1 (single isomer, unassigned) [Compound 520] | CDK7 (20 nM enz.) (kinact/KI, M^−1*s^−1) ([3]; 20 nM enzyme): 2981 M⁻¹ s⁻¹
20 | 5250 | > 10000 | 15.9 | 1.71 | 2.72e-05 |  | CC#CC(=O)N1CC(N2CC[C@@H](c3cc4c(c(C)n3)O[C@@H](C)c3c(N5CCOCC5)ccnc3N4)N(C)CC2)C1 (single isomer, unassigned) [Compound 521] | 
21 | 141 | 5370 | 1320 | 0.0109 | 1.44e-05 |  | CC#CC(=O)N1CC(N2CC[C@H](c3cc4c(c(C)n3)O[C@H](C)c3c(N5CCOCC5)ccnc3N4)N(C)CC2)C1 (single isomer, unassigned) [Compound 525] | 
22 | 9770 | > 10000 | 8.74 | 1.81 | 1.58e-05 |  | CC#CC(=O)N1CC(N2CC[C@@H](c3cc4c(c(C)n3)O[C@H](C)c3c(N5CCOCC5)ccnc3N4)N(C)CC2)C1 (single isomer, unassigned) [Compound 527] | 
23 | 603 | > 10000 | 174 | 0.0976 | 1.7e-05 |  | CC#CC(=O)N1CC(N2CC[C@H](c3cc4c(c(C)n3)O[C@@H](C)c3c(N5CCOCC5)ccnc3N4)N(C)CC2)C1 (single isomer, unassigned) [Compound 528] | 
24 | 155 | > 10000 | 2710 | 0.0182 | 4.94e-05 |  | CC#CC(=O)N1CC(N2CCC(c3cc4c(c(C)n3)O[C@H](C)c3c(-c5cnn(C)c5)ccnc3N4)CC2)C1 (single isomer, unassigned) [Compound 541] | 
25 |  |  |  | 0.0082 |  |  | CC#CC(=O)N1CC(N2CCC(c3cc4c(c(C#N)n3)O[C@@H](C)c3c(N5CCOCC5)ccnc3N4)CC2)C1 (single isomer, unassigned) [Compound 542] | CDK7_A549 Wild-type CDK7 (pIC50) [1]: 6.62; CDK7_A549 mutant hCDK7(pIC50) [2]: <5; CDK7 (20 nM enz.) (kinact, s^−1) ([3]; 20 nM enzyme): 0.0000556 s⁻¹; CDK7 (20 nM enz.) (kinact/KI, M^−1*s^−1) ([3]; 20 nM enzyme): 6751 M⁻¹ s⁻¹
